IC50 and inhibition data for eleven compounds are collected here from patent US20230278983A1, “INDOLE DERIVATIVES AND USES THEREOF FOR TREATING A CANCER” (Universite Claude Bernard Lyon 1, priority 2020, published 2023).

In the test the target is CK2 (Homo sapiens (Human), UniProt P68400). Description: Radiometric CK2 kinase assay. The test is classed as biochemical.
[1] abbreviates: inhibition of CK2 activity, ATP 10 μM.

Molecules are shown by their SMILES. Like-named read-outs stand apart in the source and are kept apart here.

CK2, sequence (P68400 whole entry): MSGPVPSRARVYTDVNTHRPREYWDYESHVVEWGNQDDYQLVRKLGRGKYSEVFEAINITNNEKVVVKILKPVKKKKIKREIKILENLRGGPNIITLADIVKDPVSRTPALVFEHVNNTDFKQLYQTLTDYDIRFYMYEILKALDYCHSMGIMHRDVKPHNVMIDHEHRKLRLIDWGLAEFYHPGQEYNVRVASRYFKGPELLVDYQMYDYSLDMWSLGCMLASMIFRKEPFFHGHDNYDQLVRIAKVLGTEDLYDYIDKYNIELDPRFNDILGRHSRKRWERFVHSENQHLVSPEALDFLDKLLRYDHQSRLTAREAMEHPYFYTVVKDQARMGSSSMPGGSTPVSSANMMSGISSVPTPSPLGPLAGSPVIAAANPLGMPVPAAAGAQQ

As to `CC(C)COC(=O)c1[nH]c2ccc(F)cc2c1-c1cn(CC2CCN(CCNS(=O)(=O)c3ccc4ccccc4c3)CC2)nn1` [AB598, Isobutyl 5-fluoro-3-(1-((1-(2-(naphthalene-2-sulfonamido)ethyl)piperidin-4-yl)methyl)-1H-1,2,3-triazol-4-yl)-1H-indole-2-carboxylate], inhibition was half-maximal at 510 nM (IC50).

For `CC(C)COC(=O)c1[nH]c2ccc(F)cc2c1-c1cn(CC2CCN(CCNS(=O)(=O)c3ccc(Cl)cc3)CC2)nn1` [AB498, Isobutyl 3-(1-((1-(2-((4-chlorophenyl)sulfonamido)ethyl)piperidin-4-yl)methyl)-1H-1,2,3-triazol-4-yl)-5-fluoro-1H-indole-2-carboxylate], half-maximal inhibition (IC50) required 830 nM.

With `CC(C)COC(=O)c1[nH]c2ccc(F)cc2c1-c1cn(CC2CCN(Cc3ccc(-c4ccc5c(c4)CCO5)c(Cl)c3)CC2)nn1` [AB731, Isobutyl 3-(1-((1-(3-chloro-4-(2,3-dihydrobenzofuran-5-yl)benzyl)piperidin-4-yl)methyl)-1H-1,2,3-triazol-4-yl)-5-fluoro-1H-indole-2-carboxylate], where the note is “compound at 1 μM, ATP 10 μM”, 1 µM produced 5% inhibition.

Take `O=C(c1[nH]c2ccc(F)cc2c1-c1cn(CC2CCN(CCNS(=O)(=O)N3CCC(c4c(F)cccc4F)CC3)CC2)nn1)C1CC1` [AB1304, N-(2-(4-((4-(2-(cyclopropanecarbonyl)-5-fluoro-1H-indol-3-yl)-1H-1,2,3-triazol-1-yl)methyl)piperidin-1-yl)ethyl)-4-(2,6-difluorophenyl)piperidine-1-sulfonamide]: under setting [1], the IC50 – broadly, the concentration that inhibits the measured activity by half – is 500 nM.

`CC(C)COC(=O)c1[nH]c2ccc(F)cc2c1-c1cn(CC2CCN(CCNS(=O)(=O)c3ccc(C4=CCC(F)(F)CC4)cc3)CC2)nn1` [AB1070, isobutyl 3-(1-((1-(2-((4′,4′-difluoro-2′,3′,4′,5′-tetrahydro-[1,1′-biphenyl])-4-sulfonamido)ethyl)piperidin-4-yl)methyl)-1H-1,2,3-triazol-4-yl)-5-fluoro-1H-indole-2-carboxylate] displayed a half-maximal inhibitory concentration (IC50) of 200 nM.

As to `CC(C)COC(=O)c1[nH]c2ccc(F)cc2c1-c1cn(CC2CCN(CCNS(=O)(=O)Cc3ccc(C(F)(F)F)cc3)CC2)nn1` [AB935, isobutyl 5-fluoro-3-(1-((1-(2-(((4-(trifluoromethyl)phenyl)methyl)sulfonamido)ethyl)piperidin-4-yl)methyl)-1H-1,2,3-triazol-4-yl)-1H-indole-2-carboxylate], 49 nM corresponded to half-maximal inhibition under setting [1] (IC50).

Compound `CC(C)COC(=O)c1[nH]c2ccc(F)cc2c1-c1cn(CC2CCN(CCNS(=O)(=O)c3ccc(-c4ccccc4)cc3)CC2)nn1` [AB913, isobutyl 3-(1-((1-(2-([1,1′-biphenyl]-4-sulfonamido)ethyl)piperidin-4-yl)methyl)-1H-1,2,3-triazol-4-yl)-5-fluoro-1H-indole-2-carboxylate] had an IC50 of 80 nM.

In the case of `CC(=O)c1[nH]c2ccc(F)cc2c1-c1cn(C[C@@H]2CCN(CCNS(=O)(=O)c3ccc(CC(C)C)cc3)C2)nn1` [AB1319], testing at 0.1 µM (compound at 0.10 μM, ATP 10 μM) gave an inhibition of 33%.

Regarding `O=C(O)c1[nH]c2ccc(Cl)cc2c1-c1cn(CC2CCN(CCNS(=O)(=O)c3ccc(Cl)cc3)CC2)nn1` [AB201, 5-Chloro-3-(1-((1-(2-((4-chlorophenyl)sulfonamido)ethyl)piperidin-4-yl)methyl)-1H-1,2,3-triazol-4-yl)-1H-indole-2-carboxylic acid], the midpoint of inhibition under setting [1], the IC50, lay at 10100 nM.

For `CC(=O)c1[nH]c2ccc(F)cc2c1-c1cn(CC2CCN(CCNS(=O)(=O)c3ccc(-c4cccnc4F)cc3)CC2)nn1` [AB1289, N-(2-(4-((4-(2-acetyl-5-fluoro-1H-indol-3-yl)-1H-1,2,3-triazol-1-yl)methyl)piperidin-1-yl)ethyl)-4-(2-fluoropyridin-3-yl)benzenesulfonamide], the IC50 under setting [1] was 440 nM.

`CCC(C)c1ccc(S(=O)(=O)NCCN2CCC(Cn3cc(-c4c(C(=O)OCC(C)C)[nH]c5ccc(F)cc45)nn3)CC2)cc1` (centres unmarked) [AB931, isobutyl 3-(1-((1-(2-((4-(sec-butyl)phenyl)sulfonamido)ethyl)piperidin-4-yl)methyl)-1H-1,2,3-triazol-4-yl)-5-fluoro-1H-indole-2-carboxylate]: under setting [1], the IC50 was found to be 100 nM.
